Data set [1] can be described thus: SPF in vitro / UVA PF from UV transmittance through thin film on PMMA plates. The following applies: for SPF in vitro mean / UV APF: 0.75 mg/cm^2; for SPF P / UV APF P: P (after irradiation, 800 J/m^2-eff). As for the experimental part:
For determining the SPF in vitro value, the protection performance of compounds according to certain embodiments of the present technology, against erythemally-effective UV radiation, largely confined to the UVB (290-320 nm) and short-wavelength UVA (320-340) region, was calculated from the measured in vitro transmittance. The in vitro UVA PF, the UVA protection (320-400 nm), was calculated from the measured in vitro transmittance after irradiation. The Critical Wavelength Value was defined as the wavelength at which the integral of the spectral absorbance curve reached 90% of the integral over the UV spectrum from 290 to 400 nm. It has been settled that this value must be equal or over 370 nm so as to classify the product as broad-spectrum. The study consisted in a comparative assay of non-treated plates against plates treated with each of the compounds and was based on the evaluation of UV-transmittance through a thin film of sunscreen sample spread on a roughened substrate, before an after exposure to a controlled dose of UV radiation from a UV source. A Kontron 933 spectrophotometer equipped with a UV source, an integrating sphere and a monochromatic light able to deliver a flow of energy between 290 and 400 nm was used. The transmittance values were measured at 1 nm intervals. A 10-4 precision laboratory balance was used to control deposited product weight. The irradiation was provided by Sunset Atlas CPS+ with standard filter. Temperature regulation of the equipment was done in the range of 25-35° C. A pre-irradiation dose of 4 times 200 J/m^2-eff (800 J/m^2-eff) was delivered. The substrate was the material to which the sunscreen product was applied. Polymethylmethacrylate (PMMA) plates were used and were roughened on one side to a three-dimensional surface topography of 5 micrometers. Each compound was weighted and applied evenly to the PMMA plate with a 2-phase spreading to achieve a 0.75 mg/cm^2 weight/surface ratio. Spreading was performed with a light spreading move for approximately 30 seconds followed by spreading with greater pressure for approximately 30 seconds. The resulting sample was left to equilibrate for 15 minutes in the dark at room temperature to ensure a self-leveling of the formula. To account for lack of photostability, a pre-irradiation was necessary. The pre-irradiation dose was 4 minimal erythema dose (MEDs), equivalent to 800 J/m^2-eff. Five measurements of spectral irradiance transmitted for each wavelength through the PMMA plate covered with the sunscreen product were obtained after pre-irradiation of the sunscreen product [P1( ), P2( ), P3( ), P4( ) and P5( )]. For each compound, mean absorbance values were determined from at least three individual PMMA plates. To validate the accuracy of the results, a control product with an established SPF of 18-20, Lot 11T0313 was tested simultaneously with the compounds. SPF in vitro was calculated for each plate using the Colipa 2011 equation.

Data set [2] is described as follows: Thermal stability by Thermogravimetric Analysis (TGA). Type of data set: physicochemical. The following applies: for T onset: by intersection points of tangents. How it is done: Briefly, the residual weight (%) of the compounds was measured at different temperatures, including 100° C. for water boiling, and other temperatures corresponding to extrusion processes, and the T onset (° C.) by intersection points of tangents was checked. The results are represented in Table 16 below, and in FIG. 6.

SMILES strings stand for the structures. Several values for one entry are separate records, joined by “and”; a condition that tells them apart may be missing. Equal entries are not always repeated.

For the compound `CCOC(=O)C1CSC2=C(CC(C)(C)C/C2=N\c2ccc(/N=N/c3ccccc3)cc2)N1` (stereo not drawn) [Formula 15], in data set [1], the “SPF Change %” value is 41%, the ΔSPF is reported as 8, the “SPF in vitro mean” value is recorded as 28.31 and the “UV APF” value came out at 4.52. Besides, in data set [1], the “SPF P” value is on record as 27.34 and the “UV APF P” value came out at 4.49.
Consider `CCOC(=O)C1CSC2=C(CC(C)(C)C/C2=N\c2ccc(-c3ccccc3)cc2)N1` (stereo not drawn) [Formula 19], for which, in data set [1], the “SPF Change %” value was 35%, the ΔSPF is reported as 7, the “SPF in vitro mean” value is listed as 27.12 and the “UV APF” value was 4.07. Also, in data set [1], the “SPF P” value worked out at 24.31 and the “UV APF P” value was found to be 3.92.
As to `CCOC(=O)CNC1=C/C(=N/c2ccc(-c3ccccc3)cc2)CC(C)(C)C1` [Formula 31], in data set [1], the “SPF Change %” value came out at 63%, the ΔSPF is given as 13, the “SPF in vitro mean” value is 32.75 and the “UV APF” value is 2.95. Also, in data set [1], the “SPF P” value is 30.52 and the “UV APF P” value is given as 2.88.
On to `CCOC(=O)CNC1=C/C(=N/c2ccc(/N=N/c3ccccc3)cc2)CC(C)(C)C1` [Formula 33], for which, in data set [1], the “SPF Change %” value was determined as 81%, the ΔSPF was 16, the “SPF in vitro mean” value was 36.23 and the “UV APF” value was found to be 4.26. Moreover, in data set [1], the “SPF P” value is 33.16 and the “UV APF P” value worked out at 4.36.
As to `CCOC(=O)CNC1=C/C(=N/c2ccc(/N=N/c3ccc([N+](=O)[O-])cc3)cc2)CC(C)(C)C1` [Formula 35], in data set [1], the “SPF Change %” value worked out at 7%, the ΔSPF turned out to be 2, the “SPF in vitro mean” value is reported as 21.53 and the “UV APF” value came to 17.35. Besides, in data set [1], the “SPF P” value stood at 17.94 and the “UV APF P” value was 14.64.
Turning to `COC(=O)C1CSC2=C(CC(C)(C)C/C2=N\c2ccc(OC)cc2)N1` (stereo not drawn) [Formula 43], in data set [1], the “SPF Change %” value came out at 4%, the ΔSPF stood at 1, the “SPF in vitro mean” value is 20.84 and the “UV APF” value stood at 4.02. For the same compound, in data set [1], the “SPF P” value is 18.59 and the “UV APF P” value was determined as 3.94.
Take `CCCCCCCCOc1ccc(/N=C2/C=C(NC(Cc3ccccc3)C(=O)OC)CC(C)(C)C2)cc1` (stereo not drawn) [Formula 69]: the “Residual weight % at different temperatures” value in data set [2] (100 (° C.)) was 99.3 w %; in data set [2] (190 (° C.)), 95.2 w %; in data set [2] (210 (° C.)), 88.0 w %; in data set [2] (250 (° C.)), 82.5 w %. The same compound returned a T onset in data set [2] of 193.6 C.
For the compound `CCOC(=O)CNC1=CC(Nc2ccc(OC)cc2)CC(C)(C)C1` (stereo not drawn) [Formula 72], in data set [1], the “SPF Change %” value is on record as 18%, the ΔSPF is 4, the “SPF in vitro mean” value is reported as 23.61 and the “UV APF” value turned out to be 2.85. In addition, in data set [1], the “SPF P” value is listed as 21.12 and the “UV APF P” value is 2.74.
Turning to `COc1ccc(NC2C=C(NCC(=O)O)CC(C)(C)C2)cc1` (stereo not drawn) [Formula 73], in data set [1], the “SPF Change %” value is on record as 61%, the ΔSPF is listed as 12, the “SPF in vitro mean” value was 32.31 and the “UV APF” value amounted to 16.05. Besides, in data set [1], the “SPF P” value was 27.60 and the “UV APF P” value worked out at 13.08.
In the case of `C#Cc1ccc(NC2C=C(NCC(=O)OCC)CC(C)(C)C2)cc1` (stereo not drawn) [Formula 76], the “Residual weight % at different temperatures” value is 99.6 w % and 99.5 w % in data set [2] (100 (° C.)); 99.4 w % and 99.2 w % in data set [2] (190 (° C.)); 99.3 w % and 99.0 w % in data set [2] (210 (° C.)); 97.7 w % and 91.7 w % in data set [2] (250 (° C.)). Moreover, the T onset in data set [2] is 256.0 C and 248.2 C.
Take `CCOC(=O)C1CSC2=C(CC(C)(C)CC2Nc2ccccc2)N1` (stereo not drawn) [Formula 77]: the “Residual weight % at different temperatures” value in data set [2] (100 (° C.)) worked out at 99.2 w %; in data set [2] (190 (° C.)), 91.2 w %; in data set [2] (210 (° C.)), 83.8 w %; in data set [2] (250 (° C.)) it was 66.4 w %. In addition, in data set [2], the T onset stood at 187.4 C.

(Values after patent publication US20240254096A1, “ULTRAVIOLET AND VISIBLE RADIATION ABSORBING COMPOUNDS” (ELKIMIA INC., priority 2021, published 2024).)
